Legend:
CRP = test: Serum CRP concentration in humans, A-002 twice a day (Example 4); assay type: in vivo, human; conditions: serum, ITT population, week 8
Protocol: (§1) 204 human subjects from the United States with CVD, specifically stable coronary artery disease, were randomized to receive placebo or A-002 via oral administration twice a day over an eight week administration period at dosages of 50 mg, 100 mg, 250 mg, or 500 mg. Levels of various lipids and inflammatory markers were measured at the outset of the trial and at the end of weeks four and/or eight. For data sets with a normal distribution, mean levels of lipids or inflammatory markers were analyzed. For data sets with non-normal distribution, median levels were analyzed. […] In addition, administration of A-002 decreased median levels of CRP (Table 11).
(§2) Serum TG, CRP, and IL-6 levels were measured at eight weeks in 86 subjects from the ITT population diagnosed with metabolic syndrome.

IL-6 = test: Serum IL-6 concentration in humans with metabolic syndrome, A-002 twice a day (Example 4); assay type: in vivo, human; conditions: metabolic syndrome subpopulation, week 8
Protocol: as §1, §2

[1] = tested on: human subjects with CVD, specifically stable CAD; test: Serum lipid levels and LDL particle size in humans, A-002 once a day for eight weeks (Example 6); assay type: in vivo; conditions: for % change vs. baseline (mean LDL particle size) / % change vs. baseline (mean [non-HDL cholesterol]) / % change vs. baseline (mean [total cholesterol]) / % change vs. baseline (median [ApoB]) / % change vs. baseline (median [TG]) / % change vs. baseline (median [oxidized LDL]) / % change vs. baseline (median [small LDL particle]) / Change in mean LDL particle size vs. baseline / Change in mean [non-HDL cholesterol] vs. baseline / Change in mean [total cholesterol] vs. baseline / Change in median [ApoB] vs. baseline / Change in median [TG] vs. baseline / Change in median [oxidized LDL] vs. baseline / Change in median [small LDL particle] vs. baseline / % change vs. baseline (mean [LDL]) / Change in mean [LDL] vs. baseline: week 8
[2] = ITT population, A-002 once a day
[3] = serum, ITT population, A-002 250 or 500 mg once a day
[4] = statin subpopulation with baseline serum LDL greater than 70 mg/dl, A-002 once a day
[5] = statin subpopulation, A-002 once a day

CCc1c(C(=O)C(N)=O)c2c(OCC(=O)OC)cccc2n1Cc1ccccc1 [A-002, [[3-(2-Amino-1,2-dioxoethyl)-2-ethyl-1-(phenylmethyl)-1H-indol-4-yl]oxy]acetic acid methyl ester]
% change vs. baseline (median [CRP]) (CRP): −13.33% | Change in median [CRP] vs. baseline (CRP): -0.20 mg/L | % change vs. baseline (mean [IL-6]) (IL-6): −4.29% | Change in mean [IL-6] vs. baseline (IL-6): -0.24 pg/mL | combined effect of A-002 and statins on LDL levels versus either compound alone ([1]; A-002 once a day, expected once additional non-statin controls are obtained): synergistic decrease in LDL levels | % change vs. baseline (mean LDL particle size) [1, 2]: +0.6% | % change vs. baseline (mean [non-HDL cholesterol]) [1, 2]: −9.9% | % change vs. baseline (mean [total cholesterol]) [1, 2]: −7.3% | % change vs. baseline (median [ApoB]) [1, 2]: −11.9% | % change vs. baseline (median [TG]) [1, 2]: −9.8% | % change vs. baseline (median [oxidized LDL]) [1, 2]: −3.6% | % change vs. baseline (median [small LDL particle]) [1, 2]: −9.1% | Change in mean LDL particle size vs. baseline [1, 2]: +0.11 nm | Change in mean [non-HDL cholesterol] vs. baseline [1, 2]: -10.5 mg/dL | Change in mean [total cholesterol] vs. baseline [1, 2]: -11.5 mg/dL | Change in median [ApoB] vs. baseline [1, 2]: -8.1 mg/dL | Change in median [TG] vs. baseline [1, 2]: -13.0 mg/dL | Change in median [oxidized LDL] vs. baseline [1, 2]: −1.4 U/L | Change in median [small LDL particle] vs. baseline [1, 2]: -74.0 nmol/L | % change vs. baseline (mean [LDL]) [1, 3]: −8.3% | Change in mean [LDL] vs. baseline [1, 3]: -7.1 mg/dL | % change vs. baseline (mean LDL particle size) [1, 4]: +1.0% | % change vs. baseline (mean [LDL]) [1, 4]: −15.0% | % change vs. baseline (mean [non-HDL cholesterol]) [1, 4]: −13.7% | % change vs. baseline (mean [total cholesterol]) [1, 4]: −10.5% | % change vs. baseline (median [ApoB]) [1, 4]: −18.7% | % change vs. baseline (median [oxidized LDL]) [1, 4]: −5.6% | % change vs. baseline (median [small LDL particle]) [1, 4]: −12.3% | Change in mean LDL particle size vs. baseline [1, 4]: +0.19 nm | Change in mean [LDL] vs. baseline [1, 4]: -13.9 mg/dL | Change in mean [non-HDL cholesterol] vs. baseline [1, 4]: -16.7 mg/dL | Change in mean [total cholesterol] vs. baseline [1, 4]: -18.0 mg/dL | Change in median [ApoB] vs. baseline [1, 4]: -13.1 mg/dL | Change in median [oxidized LDL] vs. baseline [1, 4]: −2.8 U/L | Change in median [small LDL particle] vs. baseline [1, 4]: -115.0 nmol/L | % change vs. baseline (mean LDL particle size) [1, 5]: +0.5% | % change vs. baseline (mean [LDL]) [1, 5]: −8.2% | % change vs. baseline (mean [non-HDL cholesterol]) [1, 5]: −9.9% | % change vs. baseline (mean [total cholesterol]) [1, 5]: −7.3% | % change vs. baseline (median [ApoB]) [1, 5]: −11.9% | % change vs. baseline (median [TG]) [1, 5]: −10.9% | % change vs. baseline (median [oxidized LDL]) [1, 5]: −2.9% | % change vs. baseline (median [small LDL particle]) [1, 5]: −8.2% | Change in mean LDL particle size vs. baseline [1, 5]: +0.10 nm | Change in mean [LDL] vs. baseline [1, 5]: -6.7 mg/dL | Change in mean [non-HDL cholesterol] vs. baseline [1, 5]: -10.1 mg/dL | Change in mean [total cholesterol] vs. baseline [1, 5]: -11.2 mg/dL | Change in median [ApoB] vs. baseline [1, 5]: -7.9 mg/dL | Change in median [TG] vs. baseline [1, 5]: -13.0 mg/dL | Change in median [oxidized LDL] vs. baseline [1, 5]: −1.1 U/L | Change in median [small LDL particle] vs. baseline [1, 5]: -66.0 nmol/L

Source: patent US8048880B2, “Treatment of cardiovascular disease and dyslipidemia using secretory phospholipase A2 (SPLA2) inhibitors and SPLA2 inhibitor combination therapies” (Anthera Pharmaceuticals, Inc., priority 2007, dated 2011)
